Measured values from the NIST ThermoML archive (doi:10.1016/j.jct.2013.06.009).

Test: mn = molality of the nth substance listed, in mol/kg
Settings: 101.33 kPa, Liquid; for viscosity: Capillary tube (Ostwald / Ubbelohde) method; for mass density: Vibrating tube method

CO/N=C(\C(=O)N[C@@H]1C(=O)N2C(C(=O)O)=C(C[N+]3(C)CCCC3)CS[C@H]12)c1csc(N)n1.Cl.[Cl-] [cefepime dihydrochloride] + O
Settings	mass density, 298.15 K [kg/m3]	mass density, 303.15 K [kg/m3]	mass density, 308.15 K [kg/m3]	mass density, 313.15 K [kg/m3]	viscosity, 298.15 K [mPa·s]	viscosity, 303.15 K [mPa·s]	viscosity, 308.15 K [mPa·s]	viscosity, 313.15 K [mPa·s]
m1 = 0.01005	999.04	997.63	996.01	994.18	0.899	0.8046	0.7235	0.6561
m1 = 0.02017	1001.01	999.59	997.96	996.12	0.9159	0.8192	0.7352	0.6652
m1 = 0.0304	1002.97	1001.53	999.9	998.04	0.9314	0.8325	0.7465	0.6753
m1 = 0.05103	1006.84	1005.38	1003.71	1001.85	0.9593	0.8581	0.7718	0.6976
m1 = 0.07222	1010.7	1009.21	1007.53	1005.64	0.9939	0.8888	0.7974	0.7193
m1 = 0.09333	1014.46	1012.95	1011.24	1009.33	1.029	0.9175	0.8261	0.7448
m1 = 0.1154	1018.29	1016.75	1015.02	1013.07	1.065	0.9513	0.8553	0.7705
m1 = 0.1343	1021.51	1019.94	1018.18	1016.22	1.096	0.9813	0.881	0.7947
m1 = 0.1521	1024.5	1022.9	1021.12	1019.14	1.13	1.01	0.904	0.8162
